From paper PMC7316778 (Nature Communications, 2020)
Where “and” joins values, the source holds several entries; their conditions need not be identical. Identical values can stand only once. Like-named read-outs stand apart in the source and are kept apart here.

Key:
Assay in all cases: SelectScreen kinase assay
IRAK3 = molecular target: T1, IRAK3 (Homo sapiens, UniProt Q9Y616)
T1 sequence (Q9Y616 1-596): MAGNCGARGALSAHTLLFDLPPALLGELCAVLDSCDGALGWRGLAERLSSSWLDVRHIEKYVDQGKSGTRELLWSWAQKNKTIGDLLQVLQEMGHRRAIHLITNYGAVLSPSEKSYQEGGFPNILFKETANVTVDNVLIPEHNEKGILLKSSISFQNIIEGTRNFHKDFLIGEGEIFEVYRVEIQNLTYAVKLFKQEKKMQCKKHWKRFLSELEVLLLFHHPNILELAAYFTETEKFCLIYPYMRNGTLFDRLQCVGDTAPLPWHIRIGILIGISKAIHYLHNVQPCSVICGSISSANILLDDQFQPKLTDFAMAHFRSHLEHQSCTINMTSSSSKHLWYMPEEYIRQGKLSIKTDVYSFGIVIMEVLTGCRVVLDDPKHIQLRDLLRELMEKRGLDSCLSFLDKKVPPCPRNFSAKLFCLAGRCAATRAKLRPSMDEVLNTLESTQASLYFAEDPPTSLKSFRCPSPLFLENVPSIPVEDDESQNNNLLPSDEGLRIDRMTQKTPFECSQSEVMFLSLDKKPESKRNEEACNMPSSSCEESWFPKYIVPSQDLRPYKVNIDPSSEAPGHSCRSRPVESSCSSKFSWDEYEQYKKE
Method: (§1) Selectivity profiling assays were performed by the Invitrogen SelectScreen™ Services. […] The concentration of ATP was selected to be equal to the KM, unless indicated otherwise.

STK17A (DRAK1) = molecular target: T2, STK17A (DRAK1) (Homo sapiens, UniProt Q9UEE5)
T2 sequence (Q9UEE5 1-414): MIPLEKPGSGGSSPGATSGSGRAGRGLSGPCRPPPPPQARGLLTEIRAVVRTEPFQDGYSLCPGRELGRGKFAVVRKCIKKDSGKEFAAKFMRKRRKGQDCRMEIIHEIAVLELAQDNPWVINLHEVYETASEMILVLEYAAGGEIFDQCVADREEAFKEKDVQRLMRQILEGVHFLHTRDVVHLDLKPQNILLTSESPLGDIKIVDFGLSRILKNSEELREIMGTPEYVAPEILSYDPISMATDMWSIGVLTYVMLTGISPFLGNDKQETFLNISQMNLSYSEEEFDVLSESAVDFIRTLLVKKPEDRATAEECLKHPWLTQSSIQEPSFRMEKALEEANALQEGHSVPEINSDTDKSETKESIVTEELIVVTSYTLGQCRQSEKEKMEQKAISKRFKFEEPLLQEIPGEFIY
Method: as §1

ERN2 = ERN2 (Homo sapiens, UniProt Q76MJ5)
Method: as §1

DAPK2 = DAPK2 (Homo sapiens, UniProt Q9UIK4); conditions: for Inhibition at 1 µM (%): DAPK2, LanthaScreen Binding
Chain of DAPK2 (Q9UIK4 whole entry): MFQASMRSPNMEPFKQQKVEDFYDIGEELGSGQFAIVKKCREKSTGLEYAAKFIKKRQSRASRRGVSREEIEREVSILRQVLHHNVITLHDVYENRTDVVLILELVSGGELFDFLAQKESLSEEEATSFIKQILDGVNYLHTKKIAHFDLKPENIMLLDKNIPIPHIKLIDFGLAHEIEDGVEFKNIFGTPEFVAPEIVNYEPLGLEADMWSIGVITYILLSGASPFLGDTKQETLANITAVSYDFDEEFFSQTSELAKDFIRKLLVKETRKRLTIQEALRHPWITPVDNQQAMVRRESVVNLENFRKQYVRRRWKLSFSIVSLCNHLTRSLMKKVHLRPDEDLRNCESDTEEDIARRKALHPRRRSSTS
Method: as §1

MYO3A (MYO3 alpha) = MYO3A (MYO3 alpha) (Homo sapiens, UniProt Q8NEV4)
Chain of MYO3A (MYO3 alpha) (Q8NEV4 whole entry): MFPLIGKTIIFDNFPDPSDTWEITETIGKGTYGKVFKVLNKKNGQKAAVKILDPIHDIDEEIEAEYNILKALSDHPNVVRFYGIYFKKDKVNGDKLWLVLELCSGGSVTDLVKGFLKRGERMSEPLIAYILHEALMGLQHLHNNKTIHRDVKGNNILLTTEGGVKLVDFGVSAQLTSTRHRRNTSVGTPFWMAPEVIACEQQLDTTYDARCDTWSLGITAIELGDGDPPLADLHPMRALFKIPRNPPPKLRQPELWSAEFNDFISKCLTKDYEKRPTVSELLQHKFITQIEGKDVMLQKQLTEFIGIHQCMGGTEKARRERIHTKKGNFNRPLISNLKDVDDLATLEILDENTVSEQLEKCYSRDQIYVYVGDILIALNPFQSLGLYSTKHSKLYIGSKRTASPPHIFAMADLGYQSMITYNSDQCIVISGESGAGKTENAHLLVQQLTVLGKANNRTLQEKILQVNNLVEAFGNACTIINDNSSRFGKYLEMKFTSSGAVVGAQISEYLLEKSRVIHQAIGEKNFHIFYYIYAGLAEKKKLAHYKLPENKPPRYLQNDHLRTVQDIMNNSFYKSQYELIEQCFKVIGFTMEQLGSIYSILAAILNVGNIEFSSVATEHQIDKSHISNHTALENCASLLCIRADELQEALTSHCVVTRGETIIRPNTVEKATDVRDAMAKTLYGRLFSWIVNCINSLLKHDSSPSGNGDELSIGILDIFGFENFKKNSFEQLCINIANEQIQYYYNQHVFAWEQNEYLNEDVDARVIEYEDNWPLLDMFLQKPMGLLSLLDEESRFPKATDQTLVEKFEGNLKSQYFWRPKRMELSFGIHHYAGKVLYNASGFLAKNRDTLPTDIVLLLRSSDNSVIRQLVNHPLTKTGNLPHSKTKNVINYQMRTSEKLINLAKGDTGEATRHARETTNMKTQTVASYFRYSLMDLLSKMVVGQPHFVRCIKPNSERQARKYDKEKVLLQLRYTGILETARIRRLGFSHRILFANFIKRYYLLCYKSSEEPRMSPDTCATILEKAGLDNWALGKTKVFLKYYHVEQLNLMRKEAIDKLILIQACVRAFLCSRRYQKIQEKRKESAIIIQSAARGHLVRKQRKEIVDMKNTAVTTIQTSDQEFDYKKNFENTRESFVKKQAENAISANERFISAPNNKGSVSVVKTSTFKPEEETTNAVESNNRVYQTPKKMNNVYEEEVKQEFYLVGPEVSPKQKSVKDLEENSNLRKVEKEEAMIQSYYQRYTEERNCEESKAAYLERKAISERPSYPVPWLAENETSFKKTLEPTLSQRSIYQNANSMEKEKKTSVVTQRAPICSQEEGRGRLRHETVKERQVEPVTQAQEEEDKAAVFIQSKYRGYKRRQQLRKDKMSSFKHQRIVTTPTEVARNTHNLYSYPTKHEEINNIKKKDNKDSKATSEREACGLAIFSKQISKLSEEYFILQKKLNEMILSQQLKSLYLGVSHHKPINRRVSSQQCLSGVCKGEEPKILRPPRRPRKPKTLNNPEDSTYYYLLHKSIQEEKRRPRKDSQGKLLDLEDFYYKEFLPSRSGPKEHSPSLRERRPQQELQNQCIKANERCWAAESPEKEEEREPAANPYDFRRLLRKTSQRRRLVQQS
Method: as §1

STK39 (STLK3) = STK39 (STLK3) (Homo sapiens, UniProt Q9UEW8)
Method: as §1

MAP4K2 (GCK) = MAP4K2 (GCK) (Homo sapiens, UniProt Q12851)
Method: as §1

[1] = molecular target: PIK3CB/PIK3R2 (p110 beta/p85 beta) (Homo sapiens, UniProt P42338)
Chain of PIK3CB/PIK3R2 (p110 beta/p85 beta) (P42338 whole entry): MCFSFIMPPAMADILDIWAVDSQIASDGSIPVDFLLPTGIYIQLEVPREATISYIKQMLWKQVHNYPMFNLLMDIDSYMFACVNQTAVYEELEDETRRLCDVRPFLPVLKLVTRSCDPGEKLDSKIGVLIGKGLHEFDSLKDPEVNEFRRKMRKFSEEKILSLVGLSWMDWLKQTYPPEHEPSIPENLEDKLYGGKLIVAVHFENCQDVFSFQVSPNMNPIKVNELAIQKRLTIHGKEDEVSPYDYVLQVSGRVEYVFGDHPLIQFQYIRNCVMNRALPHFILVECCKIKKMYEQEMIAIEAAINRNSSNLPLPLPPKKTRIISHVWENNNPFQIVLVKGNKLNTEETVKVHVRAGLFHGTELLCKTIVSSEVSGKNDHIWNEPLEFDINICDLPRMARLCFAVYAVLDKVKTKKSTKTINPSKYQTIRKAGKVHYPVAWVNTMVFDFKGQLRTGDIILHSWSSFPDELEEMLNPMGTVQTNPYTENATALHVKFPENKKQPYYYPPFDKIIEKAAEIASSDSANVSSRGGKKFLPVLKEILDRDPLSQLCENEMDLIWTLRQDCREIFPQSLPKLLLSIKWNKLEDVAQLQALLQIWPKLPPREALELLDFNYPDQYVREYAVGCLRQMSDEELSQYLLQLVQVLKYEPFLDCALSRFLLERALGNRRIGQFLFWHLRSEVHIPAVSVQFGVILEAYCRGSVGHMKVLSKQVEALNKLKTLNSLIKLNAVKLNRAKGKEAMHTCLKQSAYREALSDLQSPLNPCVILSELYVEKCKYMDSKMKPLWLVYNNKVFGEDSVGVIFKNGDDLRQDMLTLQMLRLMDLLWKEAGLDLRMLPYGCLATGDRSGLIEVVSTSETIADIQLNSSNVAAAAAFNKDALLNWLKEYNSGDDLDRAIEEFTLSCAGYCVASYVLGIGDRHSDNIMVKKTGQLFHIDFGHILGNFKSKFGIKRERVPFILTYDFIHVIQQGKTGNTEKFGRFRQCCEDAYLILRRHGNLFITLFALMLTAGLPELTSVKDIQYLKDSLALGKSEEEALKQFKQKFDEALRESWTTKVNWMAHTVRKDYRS
Chain of PIK3CB/PIK3R2 (p110 beta/p85 beta) (O00459 whole entry partner): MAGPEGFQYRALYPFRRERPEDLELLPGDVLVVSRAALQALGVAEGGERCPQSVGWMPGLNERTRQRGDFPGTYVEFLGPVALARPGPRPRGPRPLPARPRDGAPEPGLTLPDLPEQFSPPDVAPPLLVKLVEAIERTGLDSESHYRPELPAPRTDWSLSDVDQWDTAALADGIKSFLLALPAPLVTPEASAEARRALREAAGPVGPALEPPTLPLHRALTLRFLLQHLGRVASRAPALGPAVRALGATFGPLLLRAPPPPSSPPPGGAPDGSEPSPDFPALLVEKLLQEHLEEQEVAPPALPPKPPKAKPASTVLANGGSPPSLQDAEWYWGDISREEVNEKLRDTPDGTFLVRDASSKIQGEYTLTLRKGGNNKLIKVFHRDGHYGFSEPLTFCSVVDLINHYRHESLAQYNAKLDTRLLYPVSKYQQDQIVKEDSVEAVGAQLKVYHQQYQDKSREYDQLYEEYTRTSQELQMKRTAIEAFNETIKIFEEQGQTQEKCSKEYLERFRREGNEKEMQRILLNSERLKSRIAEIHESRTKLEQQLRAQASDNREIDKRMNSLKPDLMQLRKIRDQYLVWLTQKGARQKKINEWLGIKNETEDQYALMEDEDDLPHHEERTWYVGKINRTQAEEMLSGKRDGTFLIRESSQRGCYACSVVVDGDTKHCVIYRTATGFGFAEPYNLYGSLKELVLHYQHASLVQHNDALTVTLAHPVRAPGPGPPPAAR
Method: as §1

PTK6 (Brk) = PTK6 (Brk) (Homo sapiens, UniProt Q13882)
Chain of PTK6 (Brk) (Q13882 whole entry): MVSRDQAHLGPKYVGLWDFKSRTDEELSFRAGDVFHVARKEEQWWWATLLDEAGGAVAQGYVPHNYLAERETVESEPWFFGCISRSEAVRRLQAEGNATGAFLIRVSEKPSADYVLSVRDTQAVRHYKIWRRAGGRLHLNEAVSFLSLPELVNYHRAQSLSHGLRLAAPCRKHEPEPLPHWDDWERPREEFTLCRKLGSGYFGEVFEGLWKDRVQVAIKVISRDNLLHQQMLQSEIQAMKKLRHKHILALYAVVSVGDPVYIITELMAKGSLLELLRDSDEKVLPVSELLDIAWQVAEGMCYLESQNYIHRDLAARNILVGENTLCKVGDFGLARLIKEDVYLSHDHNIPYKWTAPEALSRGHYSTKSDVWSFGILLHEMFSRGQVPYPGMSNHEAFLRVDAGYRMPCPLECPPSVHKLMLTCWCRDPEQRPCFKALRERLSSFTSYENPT
Method: as §1

CSNK1G3 (CK1 gamma 3) = CSNK1G3 (CK1 gamma 3) (Homo sapiens, UniProt Q9Y6M4)
Chain of CSNK1G3 (CK1 gamma 3) (Q9Y6M4 whole entry): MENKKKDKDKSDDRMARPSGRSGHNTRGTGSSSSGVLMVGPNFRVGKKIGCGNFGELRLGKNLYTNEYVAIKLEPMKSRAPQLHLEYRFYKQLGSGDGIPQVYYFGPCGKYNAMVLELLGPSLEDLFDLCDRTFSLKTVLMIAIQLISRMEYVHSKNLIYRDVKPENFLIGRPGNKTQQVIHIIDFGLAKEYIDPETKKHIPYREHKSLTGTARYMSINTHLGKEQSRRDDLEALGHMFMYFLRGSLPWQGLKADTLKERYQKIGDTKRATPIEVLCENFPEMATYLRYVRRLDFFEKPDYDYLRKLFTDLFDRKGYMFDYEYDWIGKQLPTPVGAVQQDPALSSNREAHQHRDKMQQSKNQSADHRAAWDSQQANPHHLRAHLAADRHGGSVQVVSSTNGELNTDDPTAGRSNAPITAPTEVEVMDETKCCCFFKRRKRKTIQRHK
Method: as §1

CHEK1 (CHK1) = CHEK1 (CHK1) (Homo sapiens, UniProt O14757); conditions: 1 μM WEL028, 1 h preincubation
Method: as §1

PRKCZ (PKC zeta) = molecular target: T3, PRKCZ (PKC zeta) (Homo sapiens, UniProt Q05513); conditions: for Inhibition at 1 µM (%): PRKCZ (PKC zeta), ZLYTE, ATP Km app
T3 sequence (Q05513 1-592): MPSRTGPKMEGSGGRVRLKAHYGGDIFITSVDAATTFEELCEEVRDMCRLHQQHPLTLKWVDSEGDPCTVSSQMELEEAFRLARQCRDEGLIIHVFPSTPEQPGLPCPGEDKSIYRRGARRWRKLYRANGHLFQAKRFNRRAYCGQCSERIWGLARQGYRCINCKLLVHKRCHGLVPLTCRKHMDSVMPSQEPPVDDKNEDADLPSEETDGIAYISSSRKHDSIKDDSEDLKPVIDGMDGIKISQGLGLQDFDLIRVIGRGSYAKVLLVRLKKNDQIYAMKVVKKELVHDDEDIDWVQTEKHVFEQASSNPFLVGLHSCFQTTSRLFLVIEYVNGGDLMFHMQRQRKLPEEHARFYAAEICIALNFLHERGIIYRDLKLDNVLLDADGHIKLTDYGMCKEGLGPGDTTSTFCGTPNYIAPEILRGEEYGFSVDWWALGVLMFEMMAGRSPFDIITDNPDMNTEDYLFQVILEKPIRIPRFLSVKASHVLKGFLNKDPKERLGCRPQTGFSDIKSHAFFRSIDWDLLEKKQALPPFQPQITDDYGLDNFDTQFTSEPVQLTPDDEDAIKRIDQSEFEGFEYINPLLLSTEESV
Method: as §1

[2] = 1 h, 1 μM WEL028, 1 h preincubation
[3] = 1 µM, LanthaScreen Binding, listed as WEL028, 1 µM
[4] = read-out: Inhibition at 1 µM (%), 1 µM, LanthaScreen Binding

In the case of `C#CCOc1ccc(Nc2ncc(Cl)c(Nc3ccccc3NC(=O)C=C)n2)c(OC)c1` [Compound 6], the inhibition at 1 µM (IRAK3; [2]) is reported as 56%, the “Inhibition at 1 µM (%)” value (IRAK3; IRAK3, 1 µM, LanthaScreen Binding, listed as WEL028, 1 µM) is reported as 58% and the inhibition at 1 µM (IRAK3; read-out: Inhibition at 1 µM (%), IRAK3, 1 µM, LanthaScreen Binding) is reported as 55%. For the same compound, the “Inhibition at 1 µM (%)” value (STK17A (DRAK1); [3]) was 10%, the inhibition at 1 µM (STK17A (DRAK1); [2]) was 9% and the inhibition at 1 µM (STK17A (DRAK1); [4]) was 8%. The inhibition at 1 µM (ERN2; 1 h) was -1%, the inhibition at 1 µM (ERN2; read-out: Inhibition at 1 µM (%)) was -1% and the inhibition at 1 µM (DAPK2; [2]) was 10%. For the same compound, the “Inhibition at 1 µM (%)” value (DAPK2) was 14%, the “Inhibition at 1 µM (%)” value (DAPK2; listed as WEL028, 1 µM) was 6% and the inhibition at 1 µM (MYO3A (MYO3 alpha); [2]) was 17%. The “Inhibition at 1 µM (%)” value (MYO3A (MYO3 alpha); MYO3A (MYO3 alpha), 1 µM, LanthaScreen Binding, listed as WEL028, 1 µM) was 16%, the inhibition at 1 µM (MYO3A (MYO3 alpha); read-out: Inhibition at 1 µM (%), MYO3A (MYO3 alpha), 1 µM, LanthaScreen Binding) was 18% and the “Inhibition at 1 µM (%)” value (STK39 (STLK3); [3]) was 6%. For the same compound, the inhibition at 1 µM (STK39 (STLK3); [2]) was 8%, the inhibition at 1 µM (STK39 (STLK3); [4]) was 11% and the inhibition at 1 µM (MAP4K2 (GCK); [2]) was -12%. The “Inhibition at 1 µM (%)” value (MAP4K2 (GCK); MAP4K2 (GCK), 1 µM, ZLYTE, ATP Km app) was -23%, the inhibition at 1 µM [1, 2] was 2% and the “Inhibition at 1 µM (%)” value ([1]; PIK3CB/PIK3R2 (p110 beta/p85 beta), 1 µM, Adapta, ATP 10, listed as WEL028, 1 µM) was 4% and -1%. The “Inhibition at 1 µM (%)” value (PTK6 (Brk); 1 µM, ZLYTE, ATP Km app, listed as WEL028, 1 µM) was 29%, the inhibition at 1 µM (PTK6 (Brk); [2]) was 31% and the inhibition at 1 µM (PTK6 (Brk); read-out: Inhibition at 1 µM (%), 1 µM, ZLYTE, ATP Km app) was 33%. For the same compound, the “Inhibition (%)” value (CSNK1G3 (CK1 gamma 3); 1 μM WEL028, 1 h preincubation) was 0%, the “Inhibition at 1 µM (%)” value (CSNK1G3 (CK1 gamma 3); CSNK1G3 (CK1 gamma 3), 1 µM, ZLYTE, ATP Km app, listed as WEL028, 1 µM) was 3% and -2% and the “Inhibition (%)” value (CHEK1 (CHK1)) was 0%. The inhibition at 1 µM (PRKCZ (PKC zeta); [2]) was -1%, the “Inhibition at 1 µM (%)” value (PRKCZ (PKC zeta)) was 3% and the “Inhibition at 1 µM (%)” value (PRKCZ (PKC zeta); listed as WEL028, 1 µM) was -5%.
